The IC50 is the concentration needed to halve the response being measured.

IC50 data for two compounds are collected here from publication PMC9123247 (Drug Design, Development and Therapy, 2022).

Experiment [1] concerns A549 lung cancer cell line. The experiment can be described thus: MTT anti-proliferative assay, lung cancer cell line A549. It counts as cell-based. The conditions noted are these: Homo sapiens, A549, read-out: IC50 (µM) A549, MTT assay, lung cancer cell line A549; average ± standard deviation of independent triplicates. In general terms: Tetrazolium dyes change colour on reduction, which living cells bring about.

Experiment [2] has as its system T-47D breast cancer cell line. The experiment can be described thus: MTT anti-proliferative assay, breast cancer cell line T-47D. The conditions noted are these: Homo sapiens, T47D. The class given is cell-based.

Like-named read-outs stand apart in the source and are kept apart here.

Consider `C#Cc1cccc(Nc2ncnc3cc(OCCOC)c(OCCOC)cc23)c1` [Erlotinib], for which the concentration for half-maximal inhibition (IC50) in experiment [1] is 5.73 ± 0.69 µM; in experiment [2] (read-out: IC50 (µM) T-47D, MTT assay, breast cancer cell line T-47D, average ± standard deviation of independent triplicates) it was 8.14 ± 0.97 µM.
Consider `CN[C@@H]1C[C@H]2O[C@@](C)([C@@H]1OC)n1c3ccccc3c3c4c(c5c6ccccc6n2c5c31)C(=O)NC4` [Staurosporine], for which the half-maximal inhibitory concentration (IC50) in experiment [2] (read-out: IC50 (µM) T-47D) turned out to be 6.83 ± 1.03 µM.
